# In patent publication US4476299A, “Cyclic polyamino containing compounds having therapeutic effect and the preparation thereof” (priority 1981, dated 1984):
# Entries after “also recorded” stand apart in the source; their conditions may differ. Read-outs that look alike come from different tables or passages of the source.
# What was measured:
# [1] = test system: MM2; test: Antineoplastic action against MM2 tumor, i.p.-i.p. (T/C %); assay type: in vivo, mice; conditions: for T/C (%) / 60< (mice, fraction of group): Table 7, MM2 (i.p.-i.p.); for effective against MM2: in words
# Text: (§1) In this animal test, the antineoplastic action against the implanted tumor was examined, in lower animals in vivo, in repsect to the compounds according to the present invention, by using CDF1 mice.
# (§2) As the screening test for confirming antineoplasticity of certain compound, it is known in the art that there are two kinds of tests, one being "in vitro" test wherein carcinoma cells in propagation in a test tube are used, the other being "in vivo" test wherein lower animals implanted with carcinoma cells are used. In Japan. the "in vivo" test is usually carried out by using Ehrlich tumor, L-1210 cells, sarcoma 180 cells, Yoshida sarcoma or ascites-liver tumor as ascitic tumor and immobilized carcinoma mentioned above as fixed carcinoma. Recently, a new method for confirming the antineoplasticity has been developed, in which lymphocytic leukemia cells P-388 are used. It is known that P-388 has more strong sensitivity than L-1210. As fixed carcinoma, there may be mentioned, for example Lewis lung cancer B-16 melanoma, MM2, MOPC 104E, Colon 26, MH 134, C-1498 and the like.
# (§3) The new compounds of the present invention were confirmed to be effective to the P-388 cells in the light of the screening test's results hereinbefore described.
# [2] = test system: B-16 melanoma; test: Antineoplastic action against B-16 melanoma, i.p.-i.p. (T/C %); assay type: in vivo, mice; conditions: for T/C (%): Table 7, B16 (i.p.-i.p.); for effective against B-16 melanoma: in words
# Text: as §1, §2, §3
# [3] = test system: L-1210 cells; test: Antineoplastic action against implanted L-1210 tumor, CDF1 mice, i.p.-i.p. (T/C %); assay type: in vivo; conditions: Table 7, L1210 (i.p.-i.p.)
# Procedure: as §1
# (§4) To the peritoneal cavity of each group of mice consisting of six CDF1 mice per group, 10^6 /0.1 ml of P-388 cells or 10^5 /0.1 ml of L-1210 cells were implanted. […] While to the control groups of CDF1 mice, P-388 and L-1210 cells were implanted in the same manner and they were bred without administration of the compounds. […]
# [4] = test system: P-388 cells; test: Antineoplastic action against implanted P-388 tumor, CDF1 mice, i.p.-i.p. (T/C %); assay type: in vivo; conditions: for T/C (%): Table 7, P388 (i.p.-i.p.)
# Procedure: as §1, §4
# [5] = Toxicity test: lethal dose in mice (Litchfield-Wilcoxon); design: species or system male 4-weeks CD-1 (ICR) mice; conditions: mouse, in vivo, 7 days, read-out: LD50 and 95% Confidence Limit
# Procedure: With respect to the compounds of this invention, the lethal dose was determined as follows.
# By using male 4-weeks CD-1 (ICR) mice consisting of 5 to 10 mice per group, the desired amount of each compound of this invention was suspended in 0.5% CMC solution and the resultant suspension was administered to each mouse intraperitoneally or intravenously. Observing the life or death as well as the general symptome during 7 days after the administration of the compounds, the value of LD50 for each compounds was estimated from the lethal population observed on the basis of the Litchfield-Wilcoxon method.
# [6] = test system: CD-1 (IRC) mice; test: Neuropharmacological multidimensional observation (modified Arwin method and Smith method) in mice; assay type: in vivo, 4-weeks CD-1 (IRC) mice; conditions: i.p., 1 to 20 mg/kg, observed every 30 minutes for 180 minutes
# Procedure: In this test, other pharmacological effects which may be obtained by these compounds were investigated.
# Each compound of the invention was intraperitoneally administered to 4-weeks CD-1 (IRC) mice (Nippon Charles Liver K.K.) in the dose of 1 to 20 mg/kg with using mice groups consisting of three mice per group. […] The observation was carried out according to the modified Arwin method and Smith method, i.e., neuropharmacological multidimentional observation method.
# Making a comparison between the symptom observed and the pattern of the pharmacological action due to the known medicines, it has been discovered that each compound of the invention has the following pharmacological effect.
# [7] = Mus musculus, P388, ip, read-out: T/C %, (Treatment/Control %)
# [8] = Mus musculus, ip, Table 6, P388, dose 10 mg/kg, i.p., read-out: T/C %, (Treatment/Control %)
Structure (SMILES),T/C (%) ([1]; 0.5 mg/kg),"60< (mice, fraction of group) ([1]; 2 mg/kg)",T/C (%) ([1]; 2 mg/kg),effective against MM2 [1],T/C (%) ([2]; 0.5 mg/kg),T/C (%) ([2]; 2 mg/kg),T/C (%) ([2]; 4 mg/kg),effective against B-16 melanoma [2],T/C (%) ([3]; 0.5 mg/kg),T/C (%) ([3]; 2 mg/kg),"response vs control in vivo at 0.05 mg/kg [4, 7] [%]","response vs control in vivo at 0.5 mg/kg [4, 7] [%]","response vs control in vivo at 2 mg/kg [4, 7] [%]","response vs control in vivo at 4 mg/kg [4, 7] [%]",T/C (%) ([4]; 0.05 mg/kg),T/C (%) ([4]; 0.5 mg/kg),T/C (%) ([4]; 2 mg/kg),LD50 at 168 h ([5]; intravenous) [mg/kg],"LD50 at 168 h ([5]; ip, intraperitoneal) [mg/kg]",Pharmacological effect estimated [6],other results
"CCCCCCOc1ccc2cc1Oc1ccc(cc1)CC1C(=O)N(C)C(C2)C(=O)NC(C)C(=O)NC(C)C(=O)N(C)C(Cc2ccc(OC)cc2)C(=O)NC(C)C(=O)N1C (centres unmarked) [Ex. 2, n-hexylether of the compound TPC-A]",110.3,3/6,129.3,effective,130.5,158.2,136.2,effective against B-16 melanoma,115.6,126.6,110,137,154,173,130.4,143.5,150.0,,,,"60< (mice, fraction of group) ([1]; 4 mg/kg): 1/7; T/C (%) ([1]; 4 mg/kg): 161.8%; T/C (%) ([3]; 4 mg/kg): 130.9%; T/C (%) ([4]; 5 mg/kg): 176.1%"
"CCCCCC(=O)Oc1ccc2cc1Oc1ccc(cc1)CC1C(=O)N(C)C(C2)C(=O)NC(C)C(=O)NC(C)C(=O)N(C)C(Cc2ccc(OC)cc2)C(=O)NC(C)C(=O)N1C (centres unmarked) [Ex. 21, caproate of TPC-A]",112.1,2/6,127.3,,143.5,152.0,,,115.6,126.6,134,143,152,,,,152.2,,,,"T/C (%) ([1]; 10 mg/kg): 93.9%; T/C (%) ([2]; 5 mg/kg): 165.5%; T/C (%) ([3]; 10 mg/kg): 67.3%; response vs control in vivo at 10 mg/kg [4, 7]: 197%; T/C (%) ([4]; 0.01 mg/kg): 133.7%; T/C (%) ([4]; 0.1 mg/kg): 135.9%"
"COc1ccc(CC2C(=O)NC(C)C(=O)N(C)C3Cc4ccc(cc4)Oc4cc(ccc4OC(C)=O)CC(C(=O)NC(C)C(=O)NC(C)C(=O)N2C)N(C)C3=O)cc1 (centres unmarked) [Ex. 22, Acetic acid ester of TPC-A]",102.5,,109.2,effective,116.9,128.5,147.8,effective against B-16 melanoma,110.0,114.4,,,,,133.3,155.6,168.9,20,18.4,emetic action; also recorded: psychotropic action; also recorded: antidiuretic action,"T/C (%) ([1]; 5 mg/kg): 117.8%; T/C (%) ([1]; 10 mg/kg): 120.9%; T/C (%) ([2]; 8 mg/kg): 141.1%; T/C (%) ([3]; 0.05 mg/kg): 100.9%; T/C (%) ([3]; 5 mg/kg): 120.0%; T/C (%) ([3]; 10 mg/kg): 128.9%; response vs control in vivo at 0.05 mg/kg ([4]; Mus musculus, ip, Table 6, P388, dose 0.05 mg/kg, i.p., read-out: T/C %, (Treatment/Control %)): 133%; response vs control in vivo at 0.5 mg/kg ([4]; Mus musculus, ip, Table 6, P388, dose 0.5 mg/kg, i.p., read-out: T/C %, (Treatment/Control %)): 156%; response vs control in vivo at 2 mg/kg ([4]; Mus musculus, ip, Table 6, P388, dose 2 mg/kg, i.p., read-out: T/C %, (Treatment/Control %)): 169%; response vs control in vivo at 10 mg/kg [4, 8]: 195%; T/C (%) ([4]; 5 mg/kg): 175.8%; T/C (%) ([4]; 10 mg/kg): 194.7%"
"COc1ccc(CC2C(=O)NC(C)C(=O)N(C)C3Cc4ccc(cc4)Oc4cc(ccc4OC)CC(C(=O)NC(C)C(=O)NC(C)C(=O)N2C)N(C)C3=O)cc1 (centres unmarked) [Methylether of TPC-A, methylether of the compound TPC-A]",,,118.4,,,139.1,143.0,,118.6,129.3,,157,164,174,,156.7,164.2,16.5,10,emetic action; also recorded: anorexigenic action,"T/C (%) ([1]; 0.2 mg/kg): 103.1%; T/C (%) ([1]; 1 mg/kg): 103.1%; T/C (%) ([1]; 5 mg/kg): 90.8%; T/C (%) ([2]; 1 mg/kg): 135.3%; T/C (%) ([2]; printed ""(p. 25 mg/kg)""): 133.8%; T/C (%) ([3]; 0.01 mg/kg): 105.6%; T/C (%) ([3]; 1 mg/kg): 120.7%; T/C (%) ([3]; 5 mg/kg): 137.3%; response vs control in vivo at 0.01 mg/kg [4, 7]: 130%; T/C (%) ([4]; 0.01 mg/kg): 130.1%; T/C (%) ([4]; 1 mg/kg): 159.9%; T/C (%) ([4]; 4 mg/kg): 173.6%"
COc1ccc(CC2C(=O)NC(C)C(=O)N(C)C3Cc4ccc(cc4)Oc4cc(ccc4O)CC(C(=O)NC(C)C(=O)NC(C)C(=O)N2C)N(C)C3=O)cc1 (centres unmarked) [TPC-A],,,,,,,,,,,,,,,,,,34,16,emetic action; also recorded: anorexigenic action; also recorded: psychotropic action; also recorded: papaverine action,"response vs control in vivo at 10 mg/kg [4, 8]: 187%; antineoplastic effect / effective to P-388 cells ([4]; in words): has antineoplastic effect by itself"
